# Measurements reported in US11512079B2, “Heterocycle substituted pyridine derivative antifungal agents” (Amplyx Pharmaceuticals, Inc., priority 2017, dated 2022).
# Columns and labels:
# Format in all cases: cell-based
# [1] = tested on: Candida albicans 90028; assay: In vitro antifungal assay (Example IX), microdilution broth, MIC; settings: minimum inhibitory concentration (≥50% inhibition), 35° C., 40-48 h, RPMI1640
# Procedure, shortened: (§1)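 CLSI broth microdilution in RPMI1640 with 2.5×10^3 cells/mL and final compound concentrations of 2-0.0019 μg/mL (1% DMSO). C. albicans 90028 plates were incubated at 35° C. for 40-48 h and C. neoformans H99 for 72 h. MIC was read as minimum inhibitory concentration, verified at 600 nm.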
# [2] = tested on: Cryptococcus neoformans H99; assay: as above; settings: minimum inhibitory concentration (≥50% inhibition), 35° C., 72 h, RPMI1640
# Procedure, shortened: as §1
# [3] = tested on: Rhizomucor pusillus 46342; assay: In vitro antifungal assay (Example IX), microdilution broth, MEC; settings: minimum effective concentration (shortening of hyphae), 35° C., 40-48 h, RPMI1640
# Procedure, shortened: (§2)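 Spore suspensions of A. fumigatus and R. pusillus adjusted to 1-2×10^4 spores/mL in RPMI1640 and exposed to compound dilutions prepared in DMSO, by broth microdilution. MEC taken as the lowest concentration shortening hyphae versus DMSO control wells, read as for echinocandins.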
# [4] = tested on: Aspergillus fumigatus MYA3626; assay: as above; settings: minimum effective concentration (shortening of hyphae), 35° C., 40-48 h, RPMI1640
# Procedure, shortened: as §2
# [5] = tested on: Cryptococcus gattii; assay: In vitro antifungal assay (Example IX), microdilution broth, MIC; settings: minimum inhibitory concentration (≥50% inhibition), 35° C., 72 h (Cryptococcus), RPMI1640
# Description: Preparation of Fungal Suspension. C. albicans 90028 and C. neoformans H99 strains were streaked from frozen stocks at −80° C. onto Sabouraud Dextrose Agar (SDA) plates. These were allowed to grow for 24 h (C. albicans) and 48 h (C. neoformans) at 35° C. before using them in the assay. 5-6 individual colonies were picked and diluted into sterile water to obtain a fungal suspension. The cell density of the suspension was determined and the culture diluted with RPMI1640 medium to obtain a fungal suspension of 2.5×10^3 cells/mL. The suspension was used in the MIC measurement as described below.
# Preparation of Compound Stocks and Intermediate Dilutions: The compounds were weighed and DMSO was added to prepare a 10 mg/mL stock. The solutions were mixed by vortexing and sonication at 37° C. for 5-10 mins. The resulting solutions were sterile filtered using a PTFE filter, and aliquoted (12 μL or as needed) and stored at −20° C. Intermediate compound dilutions were prepared in sterile polypropylene tubes in 100% DMSO. The compound stock solution was first diluted in DMSO to obtain a concentration of […] to 0.19 μg/mL.
# MIC/MEC Measurement: 99 μL 1 of the fungal suspension in RPMI1640 prepared as above was added to each well of a 96-well round bottom assay plate. 1 μL of the intermediate compound dilutions (200-0.19 μg/mL) were added to wells of the plate. This led to a 100-fold dilution of the intermediate dilutions resulting in a final compound concentration of 2-0.0019 μg/mL in the plate. 1 μL of DMSO was added to “No drug” control wells. The solutions were mixed by shaking on a plate shaker for 10 mins and plates incubated at 35° C. for 40-48 h (C. albicans, A. fumigatus, R. pusillus) and 72 h (Cryptococcus). […] This was validated by thorough mixing and reading at 600 nm on a microplate reader. The minimum concentration that led to shortening of hyphae as compared to hyphal growth in DMSO control wells was determined as the minimum effective concentration (MEC) for A. fumigatus and R. pusillus (as read for echinocandins). The use of the MIC and MEC endpoints against yeasts and molds, respectively has been described by Pfaller M A, Duncanson F, Messer S A, Moet G J, Jones R N, Castanheira M. Antimicrob Agents Chemother. 2011. 55(11):5155-8. In vitro activity of a novel broad-spectrum antifungal, E1210, tested against Aspergillus spp. determined by CLSI and EUCAST broth microdilution methods. Results are shown in Table 2, and the letters indicate the following ranges in μg/mL: […]
MIC [1] [µg/mL],MIC [2] [µg/mL],MIC [5] [µg/mL],Structure (SMILES),minimal effective concentration [3] [µg/mL],minimal effective concentration [4] [µg/mL]
0.1 to 1,0.1 to 1,0.1 to 1,"Nc1ncccc1-c1cc(Cc2ccc(Cn3cc(F)cn3)cc2)no1 [compound 4, 3-(3-(4-((4-fluoro-1H-pyrazol-1-yl)methyl)benzyl)isoxazol-5-yl)pyridin-2-amine]",0.1 to 1,0.01 to 0.1
0.1 to 1,0.1 to 1,0.1 to 1,"Cn1cc(Cc2ccc(Cc3cc(-c4cccnc4N)on3)cc2)cn1 [compound 11, 3-(3-(4-((1-methyl-1H-pyrazol-4-yl)methyl)benzyl)isoxazol-5-yl)pyridin-2-amine]",> 1,0.01 to 0.1
0.1 to 1,0.1 to 1,0.1 to 1,"Nc1ncccc1-c1cc(Cc2ccc(Cc3cnoc3)cc2)no1 [compound 14, 3-(3-(4-(isoxazol-4-ylmethyl)benzyl)isoxazol-5-yl)pyridin-2-amine]",0.1 to 1,0.01 to 0.1
0.01 to 0.1,0.01 to 0.1,0.01 to 0.1,"Nc1ncccc1-c1cc(Cc2ccc(Cc3cccc(F)n3)cc2)no1 [compound 15, 3-(3-(4-((6-fluoropyridin-2-yl)methyl)benzyl)isoxazol-5-yl)pyridin-2-amine]",0.1 to 1,≤ 0.01
0.01 to 0.1,0.1 to 1,0.1 to 1,"Nc1ncccc1-c1cc(Cc2ccc(CCc3ccccc3)cc2)no1 [compound 18, 3-(3-(4-phenethylbenzyl)isoxazol-5-yl)pyridin-2-amine]",0.1 to 1,0.01 to 0.1
0.01 to 0.1,0.01 to 0.1,0.01 to 0.1,"Nc1ncccc1-c1cc(Cc2ccc(Cc3ccnc(F)c3)cc2)no1 [compound 19, 3-(3-(4-((2-fluoropyridin-4-yl)methyl)benzyl)isoxazol-5-yl)pyridin-2-amine]",0.1 to 1,0.01 to 0.1
0.1 to 1,0.01 to 0.1,0.01 to 0.1,"Nc1ncccc1-c1cc(Cc2ccc(Cc3ccnc(F)c3F)cc2)no1 [compound 20, 3-(3-(4-((2,3-difluoropyridin-4-yl)methyl)benzyl)isoxazol-5-yl)pyridin-2-amine]",0.1 to 1,0.01 to 0.1
0.1 to 1,0.1 to 1,0.01 to 0.1,"Nc1ncccc1-c1cc(Cc2ccc(COC3CCCCC3)cc2)no1 [compound 23, 3-(3-(4-((cyclohexyloxy)methyl)benzyl)isoxazol-5-yl)pyridin-2-amine]",0.1 to 1,0.1 to 1
0.1 to 1,> 1,> 1,"Nc1ncccc1-c1cc(Cc2ccc(OCc3cnc4ccccc4n3)cc2)no1 [compound 30, 3-(3-(4-(quinoxalin-2-ylmethoxy)benzyl)isoxazol-5-yl)pyridin-2-amine]",0.1 to 1,> 1
0.01 to 0.1,0.1 to 1,0.1 to 1,"Nc1ncccc1-c1cc(Cc2ccc(CNc3ncccn3)cc2)no1 [compound 32, N-(4-((5-(2-aminopyridin-3-yl)isoxazol-3-yl)methyl)benzyl)pyrimidin-2-amine]",0.1 to 1,0.01 to 0.1
0.01 to 0.1,> 1,0.1 to 1,"Nc1ncccc1-c1cc(Cc2ccc(CNc3nc(Cl)cs3)cc2)no1 [compound 34, N-(4-((5-(2-aminopyridin-3-yl)isoxazol-3-yl)methyl)benzyl)-4-chlorothiazol-2-amine]",0.1 to 1,0.1 to 1

# Second part, the compound before the results:
Structure (SMILES),MIC [1] [µg/mL],MIC [2] [µg/mL],MIC [5] [µg/mL],minimal effective concentration [3] [µg/mL],minimal effective concentration [4] [µg/mL]
"Nc1ncccc1-c1cc(Cc2ccc(Cn3cc(C(F)(F)F)cn3)cc2)no1 [compound 5, 3-(3-(4-((4-(trifluoromethyl)-1H-pyrazol-1-yl)methyl)benzyl)isoxazol-5-yl)pyridin-2-amine]",0.1 to 1,0.1 to 1,0.1 to 1,0.1 to 1,0.1 to 1
"Nc1ncccc1-c1cc(Cc2ccc(Cc3ccccc3)cc2)no1 [compound 8, 3-(3-(4-benzylbenzyl)isoxazol-5-yl)pyridin-2-amine]",0.1 to 1,0.01 to 0.1,≤ 0.01,0.1 to 1,0.1 to 1
"Nc1ncccc1-c1cc(Cc2ccc(Cc3cccnc3)cc2)no1 [compound 9, 3-(3-(4-(pyridin-3-ylmethyl)benzyl)isoxazol-5-yl)pyridin-2-amine]",0.01 to 0.1,0.1 to 1,0.01 to 0.1,0.1 to 1,0.1 to 1
"Nc1ncccc1-c1cc(Cc2ccc(Cc3cn[nH]c3)cc2)no1 [compound 10, 3-(3-(4-((1H-pyrazol-4-yl)methyl)benzyl)isoxazol-5-yl)pyridin-2-amine]",0.1 to 1,0.1 to 1,0.1 to 1,> 1,0.1 to 1
"CCn1cc(Cc2ccc(Cc3cc(-c4cccnc4N)on3)cc2)cn1 [compound 12, 3-(3-(4-((1-ethyl-1H-pyrazol-4-yl)methyl)benzyl)isoxazol-5-yl)pyridin-2-amine]",0.1 to 1,0.1 to 1,0.1 to 1,> 1,0.01 to 0.1
"Nc1ncccc1-c1cc(Cc2ccc(CC3=CCCC3)cc2)no1 [compound 17, 3-(3-(4-(cyclopent-1-en-1-ylmethyl)benzyl)isoxazol-5-yl)pyridin-2-amine]",0.01 to 0.1,0.01 to 0.1,0.01 to 0.1,0.1 to 1,0.01 to 0.1
"Nc1ncccc1-c1cc(Cc2ccc(C(O)c3ccccc3)cc2)no1 (centres unmarked) [compound 22, (4-((5-(2-aminopyridin-3-yl)isoxazol-3-yl)methyl)phenyl) (phenyl)methanol]",0.1 to 1,0.1 to 1,0.01 to 0.1,> 1,0.1 to 1
"Cc1cc(COc2ccc(Cc3cc(-c4cccnc4N)on3)cc2)no1 [compound 26, 3-(3-(4-((5-methylisoxazol-3-yl)methoxy)benzyl)isoxazol-5-yl)pyridin-2-amine]",0.1 to 1,0.1 to 1,0.1 to 1,> 1,0.01 to 0.1
"Nc1ncccc1-c1cc(Cc2ccc(OCc3ccc4ccccc4n3)cc2)no1 [compound 27, 3-(3-(4-(quinolin-2-ylmethoxy)benzyl)isoxazol-5-yl)pyridin-2-amine]",0.1 to 1,0.1 to 1,0.1 to 1,> 1,> 1
"Nc1ncccc1-c1cc(Cc2ccc(OCc3ncccn3)cc2)no1 [compound 28, 3-(3-(4-(pyrimidin-2-ylmethoxy)benzyl)isoxazol-5-yl)pyridin-2-amine]",0.1 to 1,0.1 to 1,0.1 to 1,> 1,0.1 to 1
"Nc1ncccc1-c1cc(Cc2ccc(CNc3cccc(F)n3)cc2)no1 [compound 31, N-(4-((5-(2-aminopyridin-3-yl)isoxazol-3-yl)methyl)benzyl)-6-fluoropyridin-2-amine]",0.01 to 0.1,0.1 to 1,0.1 to 1,0.1 to 1,0.01 to 0.1
